# Columns and labels:
# [1] = biological target: Voltage-gated inwardly rectifying potassium channel KCNH2 (Homo sapiens, UniProt Q12809); test: Displacement of labelled MK-499 from cloned channel hERG expressed in HEK cells; format: cell-based, HEK293
# Substance-P receptor = Substance-P receptor (Homo sapiens, UniProt P25103); test: Displacement of [125I]-labeled substance P from the cloned human NK1 receptor expressed in CHO cells; format: cell-based
# Gerbil, jird [2] = test: Inhibition of GR-73632-induced foot-tapping in iv dosed gerbils after 0 h; format: functional; conditions: Meriones, read-out: ID50 (the source's name)
# Gerbil, jird [3] = test: Inhibition of GR-73632-induced foot-tapping in iv dosed gerbils after 24 h; format: functional; conditions: Meriones, read-out: ID50 (the source's name)
# Mustela putorius furo = test: Inhibition of cis-platin induced emesis in ferrets at 1 mg/kg, iv; format: functional
# Gerbil, jird [4] = test: Inhibition of GR-73632-induced foot-tapping in gerbils after 24 h at 3 mg/kg, iv; format: functional; conditions: Meriones
# Gerbil, jird [5] = test: Inhibition of GR-73632-induced foot-tapping in iv dosed gerbils after 2 h; format: functional; conditions: Meriones, read-out: ID50 (the source's name)
# Gerbil, jird [6] = test: Inhibition of GR-73632-induced foot-tapping in po dosed gerbils after 24 h; format: functional; conditions: Meriones, read-out: ID50 (the source's name)
# Gerbil, jird [7] = test: Inhibition of GR-73632-induced foot-tapping in iv dosed gerbils after 24 h; conditions: Meriones, read-out: ID50 (the source's name)
# Chain of Substance-P receptor (P25103 whole entry): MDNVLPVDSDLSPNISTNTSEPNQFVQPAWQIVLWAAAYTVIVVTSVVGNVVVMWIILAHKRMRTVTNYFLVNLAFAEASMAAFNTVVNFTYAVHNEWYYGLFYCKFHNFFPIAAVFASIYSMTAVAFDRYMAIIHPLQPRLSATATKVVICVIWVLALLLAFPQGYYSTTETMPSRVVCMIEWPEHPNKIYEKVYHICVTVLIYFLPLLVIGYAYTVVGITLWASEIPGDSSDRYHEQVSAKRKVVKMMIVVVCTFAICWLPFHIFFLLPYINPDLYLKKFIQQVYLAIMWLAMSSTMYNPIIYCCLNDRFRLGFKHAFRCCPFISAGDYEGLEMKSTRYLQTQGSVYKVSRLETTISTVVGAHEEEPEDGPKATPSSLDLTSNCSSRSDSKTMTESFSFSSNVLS
# Chain of Voltage-gated inwardly rectifying potassium channel KCNH2 (Q12809 whole entry): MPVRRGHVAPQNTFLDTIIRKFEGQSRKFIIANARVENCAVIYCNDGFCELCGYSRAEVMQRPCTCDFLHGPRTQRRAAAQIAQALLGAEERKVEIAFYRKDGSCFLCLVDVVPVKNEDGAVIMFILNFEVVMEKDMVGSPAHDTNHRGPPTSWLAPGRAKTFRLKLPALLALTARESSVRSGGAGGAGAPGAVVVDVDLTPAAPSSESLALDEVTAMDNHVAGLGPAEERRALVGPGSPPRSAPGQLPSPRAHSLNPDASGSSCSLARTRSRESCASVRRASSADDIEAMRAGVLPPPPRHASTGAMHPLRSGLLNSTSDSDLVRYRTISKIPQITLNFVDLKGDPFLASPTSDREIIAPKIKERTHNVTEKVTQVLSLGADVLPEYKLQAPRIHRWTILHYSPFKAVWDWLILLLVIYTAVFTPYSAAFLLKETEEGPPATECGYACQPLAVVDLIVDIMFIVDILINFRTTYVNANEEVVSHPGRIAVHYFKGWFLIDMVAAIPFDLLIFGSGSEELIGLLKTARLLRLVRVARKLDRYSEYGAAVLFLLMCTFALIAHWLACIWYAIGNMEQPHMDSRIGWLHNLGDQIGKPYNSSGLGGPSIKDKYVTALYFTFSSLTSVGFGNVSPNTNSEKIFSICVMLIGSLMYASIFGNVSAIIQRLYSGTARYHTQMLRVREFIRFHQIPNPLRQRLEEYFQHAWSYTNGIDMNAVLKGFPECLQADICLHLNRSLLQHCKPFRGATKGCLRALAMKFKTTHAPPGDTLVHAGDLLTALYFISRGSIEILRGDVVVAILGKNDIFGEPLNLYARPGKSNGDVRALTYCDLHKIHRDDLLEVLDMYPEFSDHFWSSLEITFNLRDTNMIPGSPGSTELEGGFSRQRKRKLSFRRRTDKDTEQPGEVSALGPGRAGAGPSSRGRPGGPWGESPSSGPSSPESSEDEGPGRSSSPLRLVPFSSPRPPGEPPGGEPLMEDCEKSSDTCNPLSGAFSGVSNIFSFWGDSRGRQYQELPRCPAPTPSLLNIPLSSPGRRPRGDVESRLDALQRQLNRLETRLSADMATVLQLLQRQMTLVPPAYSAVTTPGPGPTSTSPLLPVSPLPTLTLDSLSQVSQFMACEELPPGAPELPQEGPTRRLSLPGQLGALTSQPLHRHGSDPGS
Structure (SMILES),IC50 (Substance-P receptor) [nM],Ki [1] [nM],"ED50 (Gerbil, jird [2]) [mg/kg]","ED50 (Gerbil, jird [3]) [mg/kg]",inhibition in vivo at 1 mg/kg (Mustela putorius furo) [%],"inhibition in vivo at 3 mg/kg (Gerbil, jird [4]) [%]","ED50 (Gerbil, jird [5]) [mg/kg]","ED50 (Gerbil, jird [6]) [mg/kg]","ED50 (Gerbil, jird [7]) [mg/kg]"
CC(C(=O)N[C@]1(c2ccccc2)CC[C@@H](N2CCN(c3ccccc3)C(=O)C2)CC1)c1cc(C(F)(F)F)cc(C(F)(F)F)c1 (some centres undefined),0.62,3710,0.13,1.2,–,–,–,–,–
CC1(c2cc(C(F)(F)F)cc(C(F)(F)F)c2)CCN([C@]2(c3ccccc3)CC[C@@H](N3CCC4(CCOC4)CC3)CC2)C1=O (some centres undefined),0.33,364,–,0.24,–,–,–,–,–
CC1(c2cc(C(F)(F)F)cc(C(F)(F)F)c2)CCN([C@]2(c3ccccc3)CC[C@@H](N3CCN(c4ccccc4)C(=O)C3)CC2)C1=O (some centres undefined),0.48,–,0.22,0.6,90,–,–,–,–
O=C1C(c2cc(C(F)(F)F)cc(C(F)(F)F)c2)CCCN1[C@]1(c2ccccc2)CC[C@@H](N2CCC3(CCOC3)CC2)CC1 (some centres undefined),0.8,798,–,–,–,34,–,–,–
O=C1C(c2cc(C(F)(F)F)cc(C(F)(F)F)c2)CCN1[C@]1(c2ccccc2)CC[C@@H](N2CCC3(CCOC3)CC2)CC1 (some centres undefined),0.5,327,0.35,–,50,62,–,–,–

# The next lines start with results.
IC50 (Substance-P receptor) [nM],Structure (SMILES),Ki [1] [nM],"ED50 (Gerbil, jird [2]) [mg/kg]","ED50 (Gerbil, jird [3]) [mg/kg]",inhibition in vivo at 1 mg/kg (Mustela putorius furo) [%],"inhibition in vivo at 3 mg/kg (Gerbil, jird [4]) [%]","ED50 (Gerbil, jird [5]) [mg/kg]","ED50 (Gerbil, jird [6]) [mg/kg]","ED50 (Gerbil, jird [7]) [mg/kg]"
0.66,O=C1N([C@]2(c3ccccc3)CC[C@@H](N3CCC4(CCOC4)CC3)CC2)CCC1(O)c1cc(C(F)(F)F)cc(C(F)(F)F)c1 (some centres undefined),862,–,–,–,5,–,–,–
1.5,O=C1CN([C@H]2CC[C@](c3ccccc3)(N3CCCC(c4cc(C(F)(F)F)cc(C(F)(F)F)c4)C3=O)CC2)CCN1c1ccccc1 (some centres undefined),6530,–,–,–,–,–,–,–
0.48,CC1(c2cc(C(F)(F)F)cc(C(F)(F)F)c2)CCN([C@]2(c3ccccc3)CC[C@@H](N3CCN(c4ccccc4Cl)C(=O)C3)CC2)C1=O (some centres undefined),–,–,–,–,57,–,–,–
0.34,CC(C(=O)N[C@]1(c2ccccc2)CC[C@@H](N2CCC3(CCOC3)CC2)CC1)c1cc(C(F)(F)F)cc(C(F)(F)F)c1 (some centres undefined),–,1.44,1.62,–,–,1.1,2.2,–
0.48,COC1(c2cc(C(F)(F)F)cc(C(F)(F)F)c2)CCN([C@]2(c3ccccc3)CC[C@@H](N3CCC4(CCOC4)CC3)CC2)C1=O (some centres undefined),–,–,–,–,29,–,–,–
6.2,CN(C)[C@H]1CC[C@](c2ccccc2)(N2CCC(c3cc(C(F)(F)F)cc(C(F)(F)F)c3)C2=O)CC1 (some centres undefined),984,–,–,–,–,–,–,–
1.1,O=C1CN([C@H]2CC[C@](c3ccccc3)(N3CCC(c4cc(C(F)(F)F)cc(C(F)(F)F)c4)C3=O)CC2)CCN1c1ccccc1 (some centres undefined),2000,0.09,–,–,–,–,–,2.1

# From ChEMBL document CHEMBL1138170, “Novel lactam NK1 antagonists with anti-emetic activity” (Bioorg Med Chem Lett, 2006)
